System: cancer of the prostate
Assay: Case reports: treatment of patients with cancer of the prostate (PSA level, bone scans, X-rays, rectal examination)
Type: in vivo, human
Description: Instead, a course of radiation of the involved ribs and lumbar-sacral vertebrae was carried out to reduce pain, following which the patient was referred for further treatment.
They were treated with flutamide plus leuprolide for eight weeks followed by implantation of a radioactive needle into the tumor mass. […] At this point, drug therapy was terminated and local radiation was applied to the lumbar spine to reduce pain. […] Two acquaintances in their sixties had been routinely monitoring their PSA levels every six to twelve months because of their age. […] Both were started immediately on low-dose naltrexone 3 mg/day q.h.s while they considered the desirability of undergoing standard therapies for prostate cancer. This exploration took a period of three months for one and four months for the other with both eventually electing to undergo treatment with flutamide, a testosterone blocking agent.

O=C1CC[C@@]2(O)[C@H]3Cc4ccc(O)c5c4[C@@]2(CCN3CC2CC2)[C@H]1O5 [naltrexone, Naltrexone]
Symptom-free follow-up with normal bone scans and very low PSA readings (Example 1: continued naltrexone treatment): 18 months
Tumor on bone scans (Example 1: naltrexone 3 mg/day q.h.s., after four months): disappeared
PSA level (Example 1: person, bone metastases, after failed drug therapy and radiation, naltrexone 3 mg/day q.h.s., after four months): less than 1.0
X-rays of the spine (Example 2: naltrexone 3 mg day q.h.s., over five months): became normal
PSA reading (Example 2: person, lumbar vertebrae lesions, after failed drug therapy and local radiation, naltrexone 3 mg day q.h.s., over five months): zero
Tumor shrinkage (Examples 3 and 4: two men, untreated adenocarcinoma of the prostate, naltrexone 3 mg/day q.h.s. alone for three / four months): substantial shrinkage, by more than one-half

Reference: patent US6384044B1, “Method of treating cancer of the prostate” (priority 1999, dated 2002)
